Values quoted from earlier work, collected in article PMC9516332 (Frontiers in Oncology, 2022).
Read-outs that look alike come from different tables or passages of the source.

Key:
Details in all cases: cited from earlier work
[1] = biological target: panel of 255 wild-type kinases (Homo sapiens, UniProt O75582)
[2] = biological target: panel of 255 wild-type kinases (Homo sapiens, UniProt P09769)
[3] = biological target: panel of 255 wild-type kinases (Homo sapiens, UniProt P24723)
[4] = biological target: T1, panel of 255 wild-type kinases (Homo sapiens, UniProt P29323)
T1 sequence (P29323 19-1055): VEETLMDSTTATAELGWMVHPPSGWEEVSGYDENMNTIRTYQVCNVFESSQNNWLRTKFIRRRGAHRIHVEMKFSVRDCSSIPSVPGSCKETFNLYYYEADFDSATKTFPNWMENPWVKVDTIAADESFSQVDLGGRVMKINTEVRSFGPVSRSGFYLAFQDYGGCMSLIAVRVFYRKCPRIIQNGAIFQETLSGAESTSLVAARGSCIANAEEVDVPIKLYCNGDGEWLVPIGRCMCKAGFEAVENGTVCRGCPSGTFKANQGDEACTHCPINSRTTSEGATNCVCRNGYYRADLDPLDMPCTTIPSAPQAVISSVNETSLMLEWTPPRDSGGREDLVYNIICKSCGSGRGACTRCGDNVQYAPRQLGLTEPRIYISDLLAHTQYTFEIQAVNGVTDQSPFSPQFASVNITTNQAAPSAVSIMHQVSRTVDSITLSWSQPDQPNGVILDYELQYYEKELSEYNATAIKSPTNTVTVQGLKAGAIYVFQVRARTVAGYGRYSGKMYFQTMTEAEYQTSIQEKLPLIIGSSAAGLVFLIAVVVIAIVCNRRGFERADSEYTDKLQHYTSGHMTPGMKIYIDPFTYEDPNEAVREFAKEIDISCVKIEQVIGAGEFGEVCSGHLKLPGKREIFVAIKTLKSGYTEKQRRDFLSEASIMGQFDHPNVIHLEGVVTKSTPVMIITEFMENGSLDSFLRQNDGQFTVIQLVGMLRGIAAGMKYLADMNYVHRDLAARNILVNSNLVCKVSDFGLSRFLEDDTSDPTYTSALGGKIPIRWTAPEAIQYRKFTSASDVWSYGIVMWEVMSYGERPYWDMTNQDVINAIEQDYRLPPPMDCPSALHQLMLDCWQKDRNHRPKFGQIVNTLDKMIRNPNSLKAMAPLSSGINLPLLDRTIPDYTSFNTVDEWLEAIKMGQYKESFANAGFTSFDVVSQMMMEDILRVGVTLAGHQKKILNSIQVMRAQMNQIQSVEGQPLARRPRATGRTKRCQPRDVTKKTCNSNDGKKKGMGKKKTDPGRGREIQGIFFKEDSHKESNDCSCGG

[5] = biological target: panel of 255 wild-type kinases (Homo sapiens, UniProt P48729)
[6] = biological target: panel of 255 wild-type kinases (Homo sapiens, UniProt Q9HC98)
[7] = biological target: T2, panel of 255 wild-type kinases (Homo sapiens, UniProt Q9NRA0)
T2 sequence (Q9NRA0 1-654): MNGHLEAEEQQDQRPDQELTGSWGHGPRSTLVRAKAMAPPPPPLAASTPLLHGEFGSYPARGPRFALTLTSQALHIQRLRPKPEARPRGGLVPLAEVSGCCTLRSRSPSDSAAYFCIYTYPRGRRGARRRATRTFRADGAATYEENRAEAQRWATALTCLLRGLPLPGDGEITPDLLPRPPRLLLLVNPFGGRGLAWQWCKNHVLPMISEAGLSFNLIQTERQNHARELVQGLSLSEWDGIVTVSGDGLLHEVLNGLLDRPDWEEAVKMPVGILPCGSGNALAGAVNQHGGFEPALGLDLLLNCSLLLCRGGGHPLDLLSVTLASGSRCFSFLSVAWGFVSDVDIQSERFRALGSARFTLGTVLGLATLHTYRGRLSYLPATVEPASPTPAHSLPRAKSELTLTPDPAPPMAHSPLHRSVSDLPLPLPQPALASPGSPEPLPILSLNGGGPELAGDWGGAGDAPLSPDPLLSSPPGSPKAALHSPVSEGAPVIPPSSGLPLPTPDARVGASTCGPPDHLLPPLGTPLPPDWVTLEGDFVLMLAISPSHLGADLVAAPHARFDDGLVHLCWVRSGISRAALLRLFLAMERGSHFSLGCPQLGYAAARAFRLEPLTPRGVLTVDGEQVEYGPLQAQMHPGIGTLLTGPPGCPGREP

[8] = MSK1, 1 µmol/L single concentration, ref DOI: 10.1158/1535-7163.MCT-18-0877
[9] = kinase FGR, 1 µmol/L single concentration, ref DOI: 10.1158/1535-7163.MCT-18-0877
[10] = kinase PKCη, 1 µmol/L single concentration, ref DOI: 10.1158/1535-7163.MCT-18-0877
[11] = kinase EPHB2, 1 µmol/L single concentration, ref DOI: 10.1158/1535-7163.MCT-18-0877
[12] = kinase CK1α, 1 µmol/L single concentration, ref DOI: 10.1158/1535-7163.MCT-18-0877
[13] = NEK6, 1 µmol/L single concentration, ref DOI: 10.1158/1535-7163.MCT-18-0877
[14] = kinase SPHK2, 1 µmol/L single concentration, ref DOI: 10.1158/1535-7163.MCT-18-0877
[15] = kinase FGR, 1 µmol/L single concentration, ref DOI: 10.1371/journal.pone.0092146
[16] = kinase PKCη, 1 µmol/L single concentration, ref DOI: 10.1371/journal.pone.0092146
[17] = kinase EPHB2, 1 µmol/L single concentration, ref DOI: 10.1371/journal.pone.0092146
[18] = kinase CK1α, 1 µmol/L single concentration, ref DOI: 10.1371/journal.pone.0092146
[19] = NEK6, 1 µmol/L single concentration, ref DOI: 10.1371/journal.pone.0092146
[20] = kinase SPHK2, 1 µmol/L single concentration, ref DOI: 10.1371/journal.pone.0092146
[21] = MSK1, 1 µmol/L single concentration, ref DOI: 10.1371/journal.pone.0092146

Row | SMILES | %-inhibition, MSK1 [1, 8] | %-inhibition at 1 µmol/L, FGR [2, 9] | %-inhibition at 1 µmol/L, PKCη [3, 10] | %-inhibition at 1 µmol/L, EPHB2 [4, 11] | %-inhibition at 1 µmol/L, CK1α [5, 12] | %-inhibition, NEK6 [6, 13] | %-inhibition at 1 µmol/L, SPHK2 [7, 14] | %-inhibition at 1 µmol/L, FGR [2, 15] | %-inhibition at 1 µmol/L, PKCη [3, 16] | %-inhibition at 1 µmol/L, EPHB2 [4, 17] | %-inhibition at 1 µmol/L, CK1α [5, 18] | %-inhibition, NEK6 [6, 19] | %-inhibition at 1 µmol/L, SPHK2 [7, 20] | also measured
1 | CC#CC(=O)N1CCC[C@H]1c1nc(-c2ccc(C(=O)Nc3ccccn3)cc2)c2c(N)nccn12 [acalabrutinib] | -8% | 3% | -3.18% | -0.111% | 10% | -5.54% | 7% |  |  |  |  |  |  | 
2 | CCc1cc2c(cc1N1CCC(N3CCOCC3)CC1)C(C)(C)c1[nH]c3cc(C#N)ccc3c1C2=O [alectinib] | 0.0374% | 40% | 10% | 27% | 22% | 1.43% | 1.74% |  |  |  |  |  |  | 
3 | COc1cc(N2CCC(N3CCN(C)CC3)CC2)ccc1Nc1ncc(Cl)c(Nc2ccccc2P(C)(C)=O)n1 [brigatinib] |  |  |  |  |  |  |  |  |  |  |  |  |  | %-inhibition, MSK1 [1]: 23%; %-inhibition at 1 µmol/L, FGR [2]: 52%; %-inhibition at 1 µmol/L, PKCη [3]: 17%; %-inhibition at 1 µmol/L, EPHB2 [4]: 10%; %-inhibition at 1 µmol/L, CK1α [5]: 11%; %-inhibition, NEK6 [6]: 0.534%; %-inhibition at 1 µmol/L, SPHK2 [7]: 11%
4 | Cc1cc(Nc2ncc(Cl)c(Nc3ccccc3S(=O)(=O)C(C)C)n2)c(OC(C)C)cc1C1CCNCC1 [ceritinib] | -1.09% | 5% | 5.3% | 15% | 7% | 0.593% | 6.4% |  |  |  |  |  |  | 
5 | O=C(c1ccc(F)c(F)c1Nc1ccc(I)cc1F)N1CC(O)([C@@H]2CCCCN2)C1 [cobimetinib] | -3% | -1.29% | -2% | 1.53% | 2% | 1.81% | 11% |  |  |  |  |  |  | 
6 | C[C@@H](Oc1cc(-c2cnn(C3CCNCC3)c2)cnc1N)c1c(Cl)ccc(F)c1Cl [crizotinib] |  |  |  |  |  |  |  | 70% | -8% | 57% | -1.36% | -2.72% | 8% | %-inhibition, MSK1 [1]: -0.641%
7 | CC(C)(C)c1nc(-c2cccc(NS(=O)(=O)c3c(F)cccc3F)c2F)c(-c2ccnc(N)n2)s1 [dabrafenib] |  |  |  |  |  |  |  | 82% | 9% | -3.38% | 13% | -3% | -14% | %-inhibition, MSK1 [1, 21]: 0.0759%
8 | C=CC(=O)N1CCC[C@@H](n2nc(-c3ccc(Oc4ccccc4)cc3)c3c(N)ncnc32)C1 [ibrutinib] | -1.18% | 99% | 3.27% | 28% | -2% | 0.77% | 10% |  |  |  |  |  |  | 
9 | CO[C@@H]1[C@H](N(C)C(=O)c2ccccc2)C[C@H]2O[C@]1(C)n1c3ccccc3c3c4c(c5c6ccccc6n2c5c31)C(=O)NC4 [midostaurin] | 88% | 93% |  | 4.5% | 3.51% | -8% | 12% |  |  |  |  |  |  | %-inhibition at 1 µmol/L, PKCη [3]: 84%
10 | C=CC(=O)Nc1cc(Nc2nccc(-c3cn(C)c4ccccc34)n2)c(OC)cc1N(C)CCN(C)C [osimertinib] | -0.561% | 5.61% | 0.117% | 2.8% | 4.46% | 0.319% | 15% |  |  |  |  |  |  | 
11 | CC(=O)Nc1cccc(-n2c(=O)n(C3CC3)c(=O)c3c(Nc4ccc(I)cc4F)n(C)c(=O)c(C)c32)c1 [trametinib] |  |  |  |  |  |  |  | -9% | -8% | -8% | 3% | -0.324% | -14% | %-inhibition, MSK1 [1, 21]: -0.531%
12 | CCCS(=O)(=O)Nc1ccc(F)c(C(=O)c2c[nH]c3ncc(-c4ccc(Cl)cc4)cc23)c1F [vemurafenib] |  |  |  |  |  |  |  | 93% | -22% | -2.11% | -4.34% | -1.43% | 8% | %-inhibition, MSK1 [1, 21]: 0.256%
